Here are results for 17 compounds from PubChem BioAssay (NCI).

Holding throughout (assay): DTP human tumour cell line panel, 48 h
Test [1] relates to KM20L2 colon.
In test [2] the test system is MDA-N.
Test [3] concerns DMS 273 small cell lung.
For test [4], the system named is SK-OV-3 ovarian.
Test [5] concerns SNB-78 CNS.
Test [6] has as its system HS 578T breast.
The test system of test [7] is LXFL 529 NSCLC.
Test [8] relates to M19-MEL melanoma.
For test [9], the system named is DLD-1 colon.
The subject of test [10] is OVCAR-4 ovarian.
In test [11] the test system is HL-60(TB) leukemia.
In test [12] the test system is HT29 colon.
Test [13] relates to DMS 114 small cell lung.
Test [14] concerns XF 498 CNS.
Test [15] deals with HOP-18 NSCLC.

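These data come from cells grown in 96-well plates and exposed to compound for 48 hours at five concentrations. TGI: concentration producing complete growth inhibition.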

As to `Clc1ccc2c(NCCCCCCNc3ccnc4cc(Cl)ccc34)ccnc2c1`, the TGI (commonly the concentration at which net growth stops) in test [1] is 4.39 µM; in test [2] it was 8.86 µM; in test [3] it was 11.7 µM; in test [4], 17.5 µM; in test [5] it was 3.87 µM; in test [6], greater than 48.8 µM. The total growth inhibition concentration (TGI) in test [7] was 7.3 µM; in [8], 8.83 µM; in [9], 10.3 µM; in [10], 5.93 µM; in test [11], 4.7 µM; in [12], 4.44 µM. Also, the TGI in test [13] was 3.34 µM; in [14] it was 2.96 µM.

For the compound `COc1cc(CCNC2=CC(=O)c3nc[nH]c3C2=O)ccc1O`, the TGI in [2] amounted to 32.5 µM; in test [4], 90.2 µM; in test [6], 72.8 µM; in test [10] it was 29 µM; in [11], 60.8 µM; in [12], 53.9 µM.

For `Cc1cn(CCCCCCOC(=O)NC(CCCNC(N)=O)C(=O)O)c(=O)[nH]c1=O` (stereo unspecified), the TGI in test [2], in test [4], in test [6], in [10], in test [11] and in [12] was greater than 100 µM each time.

Consider `O=C1[C@@H]2[C@@H](CN3CN(c4ccccc4)N=C(c4ccccc4)[C@@]23c2ccccc2)C(=O)N1c1ccccc1`, for which the TGI in [2] is 20.1 µM; in test [4] it was 27.7 µM; in test [6], greater than 65.8 µM; in test [10], greater than 23.8 µM; in test [11], 6.33 µM; in test [12], 6.22 µM.

As to `Cc1cc(=O)[nH]c(NNC(C#N)c2cccc([N+](=O)[O-])c2)n1` (stereo unspecified), the TGI in test [1], in [3], in test [4], in [5], in test [7] and in [8] was greater than 100 µM each time. Besides, the TGI in test [9], in test [10], in test [11], in test [12], in [15] and in test [13] was greater than 100 µM throughout.

For the compound `COc1cc2c(cc1O)C1Cc3ccc(OC)c(O)c3C[N+]1(C)CC2` (stereo unspecified), the TGI in test [2], in test [4], in test [6], in [10], in [11] and in test [12] was greater than 100 µM throughout.

For `CSC(SC)=C(C(=O)c1ccc(Cl)cc1)n1c(=O)sc2cc(Br)ccc21`, the TGI in [2], in [4], in [6], in [10], in [11] and in test [12] was greater than 100 µM in each case.

As to `N#Cc1c(NC(=S)Nc2ccc(Cl)cc2)sc2c1CCN(N1CCc3c(sc(NC(=S)Nc4ccc(Cl)cc4)c3C#N)C1)C2`, the TGI in test [2] is greater than 100 µM; in test [4], greater than 100 µM; in test [6], greater than 100 µM; in test [10], greater than 100 µM; in [11] it was greater than 100 µM; in test [12], 26.5 µM.

Take `CN(CCCCCl)P(=O)(OCc1ccc([N+](=O)[O-])o1)OCC1OC(n2ccc(N)nc2=O)C(O)C1O` (stereo unspecified): the TGI in [2] was 40.3 µM; in test [4], 38.3 µM; in test [6] it was 6.46 µM; in test [10] it was 29.1 µM; in test [11], 31.8 µM; in [12], 41.4 µM.

As for `COC1CC(C)(NC(=O)C(F)(F)F)C2OC(c3ccccc3)OCC2O1` (stereo unspecified), the TGI in [2], in test [4], in [6], in [10], in test [11] and in test [12] was greater than 100 µM throughout.

Consider `CCCCCC[C@H]([C@H](C)O)n1cnc2c(N)ncnc21`, for which the TGI in [2], in test [4], in [6], in [10], in test [11] and in [12] was greater than 100 µM throughout.

Regarding `C=C(Br)CN=CN(C)C`, the concentration for total growth inhibition (TGI) in test [2], in test [4], in test [6], in test [10], in [11] and in [12] was greater than 100 µM each time.

`CCOC(=O)c1cc(-c2ccc(OC)cc2)c([N+](=O)[O-])[nH]1`: the TGI in [2] is greater than 3.16 µM; in test [4], greater than 10 µM; in test [6], greater than 10 µM; in test [10], greater than 10 µM; in [11] it was greater than 10 µM; in [12] it was greater than 10 µM.

In the case of `CN1CCN(C(=O)c2cn(Cc3cncn3Cc3ccc4c(c3)OCO4)cc2-c2cccc3ccccc23)CC1`, the concentration for total growth inhibition (TGI) in test [2] was greater than 100 µM; in [4], greater than 100 µM; in test [6], greater than 100 µM; in test [10], greater than 100 µM; in [11] it was 23.2 µM; in test [12] it was greater than 95.5 µM.

For the compound `O=c1[nH]c(=O)n(COC(CO)CO)cc1-c1ccccc1`, the TGI in test [2], in test [4], in test [6], in test [10], in [11] and in [12] was greater than 100 µM throughout.

Take `O=C(CNc1ccccc1C(=O)O)Nn1cnc2ccc(S(=O)(=O)Nc3ccccc3C(=O)O)cc2c1=O`: the TGI in [2], in test [4], in [6], in test [10], in test [11] and in test [12] was greater than 100 µM throughout.

For `COC1(CC[C@@H](C)COC2OC(CO)C(O)C(O)C2O)OC2C[C@H]3[C@@H]4CC[C@H]5C[C@@H](OC6OC(CO)C(OC7OC(CO)C(O)C(O)C7O)C(O)C6OC6OC(C)C(O)C(O)C6O)[C@H](O)C[C@]5(C)[C@H]4CC[C@]3(C)C2[C@@H]1C` (stereo partly specified), the TGI in test [2] was determined as 4.55 µM; in test [4], 3.28 µM; in [6], 7.25 µM; in test [10], 3.96 µM; in test [11] it was 5.38 µM; in test [12], 4.99 µM.
